The values below come from US8791155B2, “Chroman derivatives” (Edison Pharmaceuticals, Inc., priority 2003, dated 2014).

Where only a bound is given, the exact number is not on record here.

The experiment deals with T1, porcine leukocyte 12/15-lipoxygenase (Sus scrofa, UniProt P16469).
T1 construct: purchased Cayman 60300
T1 sequence (P16469 1-663): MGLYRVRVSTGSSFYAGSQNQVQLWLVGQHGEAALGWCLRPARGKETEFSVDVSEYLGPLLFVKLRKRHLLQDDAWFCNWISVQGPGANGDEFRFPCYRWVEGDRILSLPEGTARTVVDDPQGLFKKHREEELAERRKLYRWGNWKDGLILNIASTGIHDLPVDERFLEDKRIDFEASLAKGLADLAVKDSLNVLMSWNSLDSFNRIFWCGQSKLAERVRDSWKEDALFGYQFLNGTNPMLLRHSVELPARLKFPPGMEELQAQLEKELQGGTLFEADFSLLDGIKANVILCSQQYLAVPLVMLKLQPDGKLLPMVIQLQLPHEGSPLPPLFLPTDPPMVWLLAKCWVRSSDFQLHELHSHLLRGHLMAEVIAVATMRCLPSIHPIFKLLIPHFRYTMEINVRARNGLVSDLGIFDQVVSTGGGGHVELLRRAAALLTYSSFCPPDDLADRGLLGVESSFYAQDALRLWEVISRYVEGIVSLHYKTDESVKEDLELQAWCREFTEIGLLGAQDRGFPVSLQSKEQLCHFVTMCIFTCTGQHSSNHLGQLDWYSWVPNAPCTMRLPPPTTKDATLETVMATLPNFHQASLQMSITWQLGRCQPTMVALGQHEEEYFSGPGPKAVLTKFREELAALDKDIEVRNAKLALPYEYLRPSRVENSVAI
The experiment is described as follows: 12/15-Lipoxygenase enzyme assay. The class given is biochemical. The settings on record: 70 μM arachidonic acid, pH 7.4, 10 minute incubation; read-out: IC50, inhibition of 12/15-Lipoxygenase.
As to `COC(=O)c1ccc(-c2c(O)c(C)c(C)c3c2CCC(C)(C)O3)cc1` [4-(6-Hydroxy-2,2,7,8-tetramethyl-chroman-5-yl)-benzoic acid methyl ester], the IC50 was less than 1000 nM.
For the compound `Cc1c(C)c2c(c(C)c1O)CCC(C)(C=C(Br)Br)O2` (stereo not drawn) [2-(2,2-Dibromo-vinyl)-2,5,7,8-tetramethyl-chroman-6-ol], the IC50 is less than 1000 nM.
For the compound `C=CCSCc1c(O)c(C)c(C)c2c1CCC(C)(C)O2` [5-Allylsulfanylmethyl-2,2,7,8-tetramethyl-chroman-6-ol], the IC50 is less than 1000 nM.
